Among the data in ChEMBL document CHEMBL4725357, “Elucidating the Structural Requirement of Uridylpeptide Antibiotics for Antibacterial Activity” (J Med Chem, 2020) are IC50 and MIC values, retold here.

Assay [1] in a line: Inhibition of Staphylococcus aureus MraY using UDPMurNAc-dansylpentapeptide as substrate incubated for 3 hrs by fluorescence method.
For another assay, the system named is Pseudomonas aeruginosa. Nature of the assay: Antibacterial activity against Pseudomonas aeruginosa PAO1 incubated for 18 hrs by CLSI based broth microdilution method. The format is functional. (In general: In broth dilution the organism is exposed to a series of concentrations in liquid medium.)
Assay [2] in a line: Inhibition of Staphylococcus aureus MraY using UDPMurNAc-dansylpentapeptide as substrate incubated for 3 to 4 hrs by fluorescence method.

Converted amounts (≈) assume the structure as drawn. Bounds are passed on as bounds.

In the case of `C[C@@H]([C@H](NC(=O)[C@H](Cc1c[nH]c2ccccc12)NC(=O)N[C@@H](Cc1c[nH]c2ccccc12)C(=O)O)C(=O)N/C=C1\O[C@@H](n2ccc(=O)[nH]c2=O)[C@H](O)[C@@H]1O)N(C)C(=O)[C@@H](N)Cc1cccc(O)c1`, half-maximal inhibition in assay [1] (IC50) was put at 0.44 nM. In the assay on Pseudomonas aeruginosa, the MIC is 32 µg/mL (≈ 34.2 µM). As for `C[C@@H](O)[C@H](NC(=O)N[C@@H](Cc1c[nH]c2ccccc12)C(=O)O)C(=O)N[C@H](C(=O)N/C=C1\O[C@@H](n2ccc(=O)[nH]c2=O)[C@H](O)[C@@H]1O)[C@H](C)N(C)C(=O)[C@@H](N)Cc1cccc(O)c1`, the midpoint of inhibition in assay [1], the IC50, lay at 1.8 nM. The minimal inhibitory concentration (MIC) with Pseudomonas aeruginosa stood at 32 µg/mL (≈ 37.7 µM). As for `C[C@@H]([C@H](NC(=O)[C@@H]1CCCN1C(=O)N[C@@H](Cc1c[nH]c2ccccc12)C(=O)O)C(=O)N/C=C1\O[C@@H](n2ccc(=O)[nH]c2=O)[C@H](O)[C@@H]1O)N(C)C(=O)[C@@H](N)Cc1cccc(O)c1`, in assay [1], the IC50 was above 500 nM. The compound further gave an MIC with Pseudomonas aeruginosa above 128 µg/mL. With `CC(=O)N[C@@H](C)C(=O)N[C@H](C(=O)N/C=C1\O[C@@H](n2ccc(=O)[nH]c2=O)[C@H](O)[C@@H]1O)[C@H](C)N(C)C(=O)[C@@H](N)Cc1cccc(O)c1`, the IC50 in assay [1] was above 1000 nM. `CC[C@H](C)[C@H](NC(=O)N[C@@H](Cc1c[nH]c2ccccc12)C(=O)O)C(=O)N[C@H](C(=O)N/C=C1\O[C@@H](n2ccc(=O)[nH]c2=O)[C@H](O)[C@@H]1O)[C@H](C)N(C)C(=O)[C@@H](N)Cc1cccc(O)c1` had an IC50 in assay [1] of 1.4 nM. For the same compound, the MIC against Pseudomonas aeruginosa is 16 µg/mL (≈ 18.6 µM). With `CC(C)C[C@H](NC(=O)[C@@H](NC(=O)N[C@H](C(=O)O)C(C)C)[C@@H]1CCNC(=N)N1)C(=O)NCCCN[C@H](C(=O)O)[C@H](O[C@@H]1O[C@H](CN)[C@@H](O)[C@H]1O)[C@H]1O[C@@H](n2ccc(=O)[nH]c2=O)[C@H](O)[C@@H]1O` [MURAMYCIN D2], in assay [1], the IC50 was 2.8 nM.

With `C[C@H](NC(=O)N[C@@H](Cc1c[nH]c2ccccc12)C(=O)O)C(=O)N[C@H](C(=O)N/C=C1\O[C@@H](n2ccc(=O)[nH]c2=O)[C@H](O)[C@@H]1O)[C@H](C)N(C)C(=O)[C@@H](N)Cc1cccc(O)c1`, inhibition in assay [1] was half-maximal at 1.3 nM (IC50). The MIC in the assay with Pseudomonas aeruginosa was found to be 64 µg/mL (≈ 78.1 µM). In turn, `C[C@@H]([C@H](NC(=O)[C@H](CCCCN)NC(=O)N[C@@H](Cc1c[nH]c2ccccc12)C(=O)O)C(=O)N/C=C1\O[C@@H](n2ccc(=O)[nH]c2=O)[C@H](O)[C@@H]1O)N(C)C(=O)[C@@H](N)Cc1cccc(O)c1` registered an IC50 in assay [1] of 1.8 nM. Also, in the assay with Pseudomonas aeruginosa, the minimum inhibitory concentration (MIC) is above 128 µg/mL. In turn, `C[C@@H]([C@H](NC(=O)[C@H](Cc1ccccc1)NC(=O)N[C@@H](Cc1c[nH]c2ccccc12)C(=O)O)C(=O)N/C=C1\O[C@@H](n2ccc(=O)[nH]c2=O)[C@H](O)[C@@H]1O)N(C)C(=O)[C@@H](N)Cc1cccc(O)c1` gave an IC50 in assay [1] of 0.6 nM. The compound also showed an MIC with Pseudomonas aeruginosa of 16 µg/mL (≈ 17.9 µM). The corresponding values for `C[C@@H]([C@H](NC(=O)[C@H](Cc1ccc(O)cc1)NC(=O)N[C@@H](Cc1c[nH]c2ccccc12)C(=O)O)C(=O)N/C=C1\O[C@@H](n2ccc(=O)[nH]c2=O)[C@H](O)[C@@H]1O)N(C)C(=O)[C@@H](N)Cc1cccc(O)c1` are 0.22 nM and 16 µg/mL (≈ 17.5 µM). In assay [1], `CCCCCCCCCCCCCCC[C@H](NC(=O)[C@@H](NC(=O)N[C@H](C(=O)O)C(C)C)[C@@H]1CCNC(=N)N1)C(=O)NCCCN[C@H](C(=O)O)[C@H](O[C@@H]1O[C@H](CN)[C@@H](O)[C@H]1O)[C@H]1O[C@@H](n2ccc(=O)[nH]c2=O)[C@H](O)[C@@H]1O` showed an IC50 of 1.1 nM. In assay [1], `C[C@@H]([C@H](NC(=O)[C@H](CC(=O)O)NC(=O)N[C@@H](Cc1c[nH]c2ccccc12)C(=O)O)C(=O)N/C=C1\O[C@@H](n2ccc(=O)[nH]c2=O)[C@H](O)[C@@H]1O)N(C)C(=O)[C@@H](N)Cc1cccc(O)c1` yielded an IC50 of 7.6 nM. The same compound returned a minimal inhibitory concentration (MIC) in the assay with Pseudomonas aeruginosa above 128 µg/mL. `CCCCCCCCCCCCCCC[C@H](N)C(=O)NCCCN[C@H](C(=O)O)[C@H](O[C@@H]1O[C@H](CN)[C@@H](O)[C@H]1O)[C@H]1O[C@@H](n2ccc(=O)[nH]c2=O)[C@H](O)[C@@H]1O` gave a 50% inhibitory concentration (IC50) in assay [1] of 2.7 nM. In other words, the single-digit nanomolar range. In assay [1], `C[C@@H]([C@H](NC(=O)[C@H](CCC(N)=O)NC(=O)N[C@@H](Cc1c[nH]c2ccccc12)C(=O)O)C(=O)N/C=C1\O[C@@H](n2ccc(=O)[nH]c2=O)[C@H](O)[C@@H]1O)N(C)C(=O)[C@@H](N)Cc1cccc(O)c1` came in with a concentration for half-maximal inhibition (IC50) of 1.3 nM. For the same compound, 128 µg/mL (≈ 146 µM) was the least that counted as inhibitory in the assay on Pseudomonas aeruginosa (MIC).

In assay [1], `CC(C)[C@H](NC(=O)N[C@@H](Cc1c[nH]c2ccccc12)C(=O)O)C(=O)N[C@H](C(=O)N/C=C1\O[C@@H](n2ccc(=O)[nH]c2=O)[C@H](O)[C@@H]1O)[C@H](C)N(C)C(=O)[C@@H](N)Cc1cccc(O)c1` came in with an IC50 of 1.5 nM. In the assay with Pseudomonas aeruginosa, this compound returned an MIC of 16 µg/mL (≈ 18.9 µM). `C[C@@H]([C@H](NC(=O)[C@H](CS)NC(=O)N[C@@H](Cc1c[nH]c2ccccc12)C(=O)O)C(=O)N/C=C1\O[C@@H](n2ccc(=O)[nH]c2=O)[C@H](O)[C@@H]1O)N(C)C(=O)[C@@H](N)Cc1cccc(O)c1` registered an IC50 in assay [1] of 1.6 nM. The compound also had an MIC in the assay on Pseudomonas aeruginosa of 128 µg/mL (≈ 150 µM).

For `CCCCCCCCCCCCCCCC(=O)N[C@@H](C)C(=O)N[C@H](C(=O)N/C=C1\O[C@@H](n2ccc(=O)[nH]c2=O)[C@H](O)[C@@H]1O)[C@H](C)N(C)C(=O)[C@@H](N)Cc1cccc(O)c1`, the IC50 in assay [1] was above 1000 nM. Regarding `C[C@@H]([C@H](NC(=O)[C@H](Cc1cnc[nH]1)NC(=O)N[C@@H](Cc1c[nH]c2ccccc12)C(=O)O)C(=O)N/C=C1\O[C@@H](n2ccc(=O)[nH]c2=O)[C@H](O)[C@@H]1O)N(C)C(=O)[C@@H](N)Cc1cccc(O)c1`, the IC50 in assay [1] was determined as 2.8 nM. The compound also gave an MIC with Pseudomonas aeruginosa above 128 µg/mL. In turn, `C[C@@H]([C@H](NC(=O)[C@H](CC(N)=O)NC(=O)N[C@@H](Cc1c[nH]c2ccccc12)C(=O)O)C(=O)N/C=C1\O[C@@H](n2ccc(=O)[nH]c2=O)[C@H](O)[C@@H]1O)N(C)C(=O)[C@@H](N)Cc1cccc(O)c1` gave an IC50 in assay [1] of 2.1 nM. The compound also showed an MIC against Pseudomonas aeruginosa above 128 µg/mL. The corresponding values for `C[C@@H]([C@H](NC(=O)CNC(=O)N[C@@H](Cc1c[nH]c2ccccc12)C(=O)O)C(=O)N/C=C1\O[C@@H](n2ccc(=O)[nH]c2=O)[C@H](O)[C@@H]1O)N(C)C(=O)[C@@H](N)Cc1cccc(O)c1` are 4.2 nM and above 128 µg/mL. Compound `C[C@@H]([C@H](NC(=O)[C@H](CCCNC(=N)N)NC(=O)N[C@@H](Cc1c[nH]c2ccccc12)C(=O)O)C(=O)N/C=C1\O[C@@H](n2ccc(=O)[nH]c2=O)[C@H](O)[C@@H]1O)N(C)C(=O)[C@@H](N)Cc1cccc(O)c1` came in with an IC50 in assay [1] of 3.4 nM. The MIC in the assay on Pseudomonas aeruginosa was above 128 µg/mL. In turn, `C[C@H](N)C(=O)N(C)[C@@H](C)[C@H](NC(=O)[C@H](C)NC(=O)N[C@@H](Cc1c[nH]c2ccccc12)C(=O)O)C(=O)N/C=C1/CC(O)[C@H](n2ccc(=O)[nH]c2=O)O1` (some centres not stated) yielded an IC50 in assay [2] of 22 nM. `C[C@@H]([C@H](NC(=O)[C@H](CCC(=O)O)NC(=O)N[C@@H](Cc1c[nH]c2ccccc12)C(=O)O)C(=O)N/C=C1\O[C@@H](n2ccc(=O)[nH]c2=O)[C@H](O)[C@@H]1O)N(C)C(=O)[C@@H](N)Cc1cccc(O)c1` yielded an IC50 in assay [1] of 3.3 nM. Besides, in the assay with Pseudomonas aeruginosa, the lowest concentration to inhibit growth (MIC) was 128 µg/mL (≈ 146 µM). With `C[C@@H]([C@H](NC(=O)[C@H](CO)NC(=O)N[C@@H](Cc1c[nH]c2ccccc12)C(=O)O)C(=O)N/C=C1\O[C@@H](n2ccc(=O)[nH]c2=O)[C@H](O)[C@@H]1O)N(C)C(=O)[C@@H](N)Cc1cccc(O)c1`, the half-inhibitory concentration (IC50) in assay [1] turned out to be 1.8 nM. The same compound yielded an MIC in the assay on Pseudomonas aeruginosa above 128 µg/mL. As for `CC(=O)N[C@H](C(=O)N/C=C1\O[C@@H](n2ccc(=O)[nH]c2=O)[C@H](O)[C@@H]1O)[C@H](C)N(C)C(=O)[C@@H](N)Cc1cccc(O)c1`, the IC50 in assay [1] was above 1000 nM.

In the case of `CC(C)C[C@H](NC(=O)N[C@@H](Cc1c[nH]c2ccccc12)C(=O)O)C(=O)N[C@H](C(=O)N/C=C1\O[C@@H](n2ccc(=O)[nH]c2=O)[C@H](O)[C@@H]1O)[C@H](C)N(C)C(=O)[C@@H](N)Cc1cccc(O)c1`, in assay [1], 4 nM corresponded to half-maximal inhibition (IC50). For the same compound, in the assay with Pseudomonas aeruginosa, the lowest concentration to inhibit growth (MIC) was 32 µg/mL (≈ 37.1 µM).

Compound `CSCC[C@H](NC(=O)N[C@@H](Cc1c[nH]c2ccccc12)C(=O)O)C(=O)N[C@H](C(=O)N/C=C1\O[C@@H](n2ccc(=O)[nH]c2=O)[C@H](O)[C@@H]1O)[C@H](C)N(C)C(=O)[C@@H](N)Cc1cccc(O)c1` had an IC50 in assay [1] of 1 nM. In the assay on Pseudomonas aeruginosa, this compound yielded an MIC of 32 µg/mL (≈ 36.4 µM).

A word on the IC50: it is the concentration that inhibits the measured activity by half. The low end stands for greater potency in that assay, the high end for weaker potency in that assay. Broadly, the MIC is the lowest concentration found to suppress growth.
